Test results from the NIST ThermoML archive (doi:10.1021/je700373r).
Numbers after ± are expanded uncertainties.

Assay: xn = mol fraction of the nth substance listed
Conditions: Fluid (supercritical or subcritical phases), Vibrating tube method

CC1=C(/C=C/C(C)=C/C=C/C(C)=C/C=C/C=C(C)/C=C/C=C(C)/C=C/C2=C(C)CCCC2(C)C)C(C)(C)CCC1 [β-carotene] + O=C=O
mass density [kg/m3]
Conditions | x1 = 1.5e-06 | x1 = 2.2e-06 | x1 = 2.9e-06 | x1 = 4.3e-06 | x1 = 4.8e-06 | x1 = 5.5e-06 | x1 = 6.5e-06
308.15 K, 10000 kPa | 717.5 ± 2.1 | 717.7 ± 2.1 | 717.9 ± 2.1 | 717.6 ± 2.1 | 717.8 ± 2.1 | 718.3 ± 2.1 | 717.8 ± 2.1
308.15 K, 15000 kPa | 816.3 ± 1.6 | 816.4 ± 1.6 | 816.5 ± 1.6 | 816.4 ± 1.6 | 816.4 ± 1.6 | 816.7 ± 1.6 | 816.4 ± 1.6
308.15 K, 20000 kPa | 866.3 ± 1 | 866.3 ± 1 | 866.3 ± 1 | 866.4 ± 1 | 866.4 ± 1 | 866.5 ± 1 | 866.4 ± 1
308.15 K, 30000 kPa | 929.1 ± 0.8 | 929.1 ± 0.8 | 929.1 ± 0.8 | 929.1 ± 0.8 | 929.3 ± 0.8 | 929.2 ± 0.8 | 929.1 ± 0.8
308.15 K, 40000 kPa | 971.8 ± 0.7 | 971.9 ± 0.7 | 971.9 ± 0.7 | 971.9 ± 0.7 | 972 ± 0.7 | 972 ± 0.7 | 971.9 ± 0.7
313.15 K, 10000 kPa | 636.7 ± 3.2 | 637.3 ± 3.2 | 637.2 ± 3.2 | 637.2 ± 3.2 | 637.7 ± 3.2 | 637.8 ± 3.2 | 637.3 ± 3.3
313.15 K, 15000 kPa | 781.5 ± 2.1 | 781.6 ± 2.1 | 781.6 ± 2.1 | 781.6 ± 2.1 | 781.8 ± 2.1 | 781.9 ± 2.1 | 781.6 ± 2.1
313.15 K, 20000 kPa | 840.4 ± 1 | 840.4 ± 1 | 840.4 ± 1 | 840.4 ± 1 | 840.6 ± 1 | 840.7 ± 1 | 840.4 ± 1
313.15 K, 30000 kPa | 909.9 ± 0.9 | 909.9 ± 0.9 | 909.9 ± 0.9 | 909.9 ± 0.9 | 910 ± 0.9 | 910.1 ± 0.9 | 909.9 ± 0.9
313.15 K, 40000 kPa | 955.7 ± 0.8 | 955.7 ± 0.8 | 955.7 ± 0.8 | 955.7 ± 0.8 | 955.8 ± 0.8 | 955.9 ± 0.8 | 955.7 ± 0.8
323.15 K, 10000 kPa | 398.3 ± 5.6 | 397.9 ± 5.6 | 398.9 ± 5.6 | 398.2 ± 5.5 | 398.4 ± 5.6 | 398.5 ± 5.6 | 398.2 ± 5.2
323.15 K, 15000 kPa | 702 ± 3.9 | 701.8 ± 3.9 | 702.1 ± 3.9 | 702 ± 3.9 | 702.1 ± 3.9 | 702.2 ± 3.9 | 702 ± 3.9
323.15 K, 20000 kPa | 785 ± 1.2 | 784.9 ± 1.2 | 785.1 ± 1.2 | 785 ± 1.2 | 785.2 ± 1.2 | 785.3 ± 1.2 | 785 ± 1.3
323.15 K, 30000 kPa | 870.5 ± 0.9 | 870.5 ± 0.9 | 870.5 ± 0.9 | 870.5 ± 0.9 | 870.6 ± 0.9 | 870.7 ± 0.9 | 870.5 ± 0.9
323.15 K, 40000 kPa | 922.9 ± 0.8 | 923 ± 0.8 | 923 ± 0.8 | 923 ± 0.8 | 923 ± 0.8 | 923.1 ± 0.8 | 923 ± 0.8
333.15 K, 10000 kPa | 296.5 ± 6.2 | 297.2 ± 6.3 | 296.7 ± 6.3 | 296.6 ± 6.2 | 296.9 ± 6.3 | 297 ± 6.3 | 296.6 ± 6.3
333.15 K, 15000 kPa | 607.3 ± 4.3 | 607.7 ± 4.3 | 607.7 ± 4.3 | 607.4 ± 4.3 | 607.7 ± 4.3 | 607.8 ± 4.3 | 607.4 ± 4.4
333.15 K, 20000 kPa | 724.5 ± 1.5 | 724.7 ± 1.5 | 724.7 ± 1.5 | 724.7 ± 1.5 | 724.7 ± 1.5 | 725 ± 1.5 | 724.6 ± 1.6
333.15 K, 30000 kPa | 829.7 ± 1.1 | 829.7 ± 1.1 | 829.7 ± 1.1 | 829.7 ± 1.1 | 829.8 ± 1.1 | 829.9 ± 1.1 | 829.7 ± 1.1
333.15 K, 40000 kPa | 889.8 ± 0.9 | 889.8 ± 0.9 | 889.9 ± 0.9 | 889.9 ± 0.9 | 890 ± 0.9 | 890 ± 0.9 | 889.9 ± 0.9
